# Experimental data published in patent US20250387392A1, “PYRIDAZINONE COMPOSITIONS FOR THE TREATMENT OF NEUROMUSCULAR CONDITIONS” (Edgewise Therapeutics, Inc., priority 2022, published 2025).
# Tests used:
# adults with BMD [1] = assay: Functional tests (velocity, muscle strength) in adults with BMD; format: in vivo, human
# Source text: FIG. 7 depicts increases in functional measures such; walk/run velocity, stair climb velocity, and grip strength in BMD patients at two and four months following the initial administration of Compound 1 in comparison to baseline measurements.
# FIGS. 12A-12F depict the functional evaluation after the treatment of Compound 1. FIG. 12A depicts the average 10 m velocity in different dosing regimens. All p-values NS with a 7% decrease at 12 months. Last observation carried forward (all N=12, except for 2 missing values, month 4 and 8). FIG. 12B depicts the average 100 meter velocity in different dosing regimens. All p-values NS with 0% change at 12 months. Last observation carried forward (all N=12, except for 2 missing values, month 4 and 8). FIG. 12C depicts the average 4-stair climb time velocity in different dosing regimens. All p-values NS except that p value for 12 months was 0.016, which was 13% decrease at 12 months. FIG. 12D depicts the average maximum grip strength in different dosing regimens. p-values <0.05 at 4, 6, 8 month and NS at 12 months. There was a 8% decrease at 12 months. FIG. 12E depicts the average maximum knee extension strength in different dosing regimens. P-values <0.05 at 4, 8, 12 month. There was a 25% decrease at 12 months. FIG. 12F depicts the maximum elbow flexion strength in different dosing regimens. All p-values NS, and there was no change at 12 months.
# Furthermore, functional tests were carried out to evaluate the functional improvements of muscle in the participants resulted from Compound 1. […] Different parameters of muscle strength were also quantified and evaluated in FIGS. 12D-12F.
# [2] = system: proinflammatory cytokines and chemokines, anti-inflammatory interleukins; assay: SOMAscan plasma proteomics, inflammatory proteins, BMD participants; format: in vivo, human
# Description: (§1) Changes in muscle injury biomarkers such as creatine kinase (CK) or fast skeletal muscle troponin I (TNNI2) were assessed in clinical trial participants. The abundance of the biomarkers were measured by plasma proteomics (SOMAscan) in short- (1-2 months), mid- (3-4 months), or long-term (6-12 months) treatment. FIG. 14A illustrates the design of this study. 12 BMD participants, 7 of whom participated in the Phase I MAD study (Example 2), were enrolled and initially treated with 10 mg of Compound 1 daily, with dose-escalation from 10 mg to 20 mg daily as shown. Blood draws were taken at pre-dose baseline, then at regular intervals thereafter for analysis by SOMAscan, as well as quantification of CK activity or TNNI2 concentration by an activity assay or ELISA. SOMAscan is a multistep modified aptamer-based assay for highOthroughpu, sensitive, and unbiased biomarker measurement. Proteins in the samples were selectively bound with fluorescent aptamers, which were then measured on a chip array to yield values proportion to absolute concentrations.
# FIG. 14G and FIG. 14H illustrate favorable shift in inflammatory biomarkers with long-term treatment. […] The observed protein concentration changes after 6-12 months were consistent across study participants (FIG. 14H).
# [3] = Muscle versus plasma concentration, muscle biopsy data from Phase 1 multiple ascending dose (MAD) study; format: in vivo, human
# Description: (§2) In parallel, the plasma concentrations of Compound 1 were also monitored across different dosing regimens. For group with higher dosage (e.g., the 20 mg group), there were patients with high exposures or low exposures. It was unexpected that the patients with high exposures reached to a range of plasma concentration after dosing with 20 mg/day, which was more than 4-fold higher than the target exposures predicted from preclinical models. It is also worth noting that Compound 1 was enriched in muscle. The target muscle concentration of Compound 1 from patients with lower plasma concentration were 1,000-4000 ng/g from preclinical experiments. Using muscle biopsy data from a Phase 1 multiple ascending dose (MAD) study, this equates to approximately 15-70 ng/ml in BMD. In other words, Compound 1 was enriched by about 60 fold in muscle compared to plasma.
# creatine kinase (CK) = assay: Muscle damage biomarker creatine kinase in adults with BMD (activity assay / SOMAscan); format: in vivo, human
# Description: (§3) FIGS. 2 to 8 depict positive 4-month interim results from the ongoing open label, single-center study assessing the safety, tolerability, and impact on muscle damage biomarkers, and pharmacokinetics (PK) of Compound 1 in adults with BMD. Twelve adults with BMD enrolled in the ARCH study, were dose escalated to daily 15 mg oral doses of Compound 1 at night after having initially received a 10 mg dose during the first 2 months of the study. […] All eligible patients have subsequently been dose escalated to 20 mg daily as per protocol.
# (§4) Treatment with Compound 1 led to a significant decrease in key biomarkers of muscle damage when assessed by laboratory assays. Importantly, CK and fast skeletal muscle troponin I were reduced by an average of 29% and 73%, respectively, after 4 months (FIG. 5).
# (§5) Several biomarkers of muscle damage were tested to evaluate the efficacy of Compound 1 with different dosing regimens.
# as §1
# (§6) In this study, SOMAscan was correlated to CK and TNNI2 to allow for direct conversion to absolute concentrations as well as used to identify large-scale proteomic differences between short- and long-term treatment with Compound 1. FIG. 14B illustrates validation of CK and TNNI2, where a strong correlation between SOMAscan and absolute measurements of CK (left) and TNNI2 (right) was observed. FIG. 14C illustrates SOMAscan-quantified CK and TNNI2 in blood. […] Indicated significance was for all values at that treatment point relative to pre-dose baseline. FIG. 14D and FIG. 14E illustrate the effect of Compound 1 on muscle injury proteins. SOMAscan was used to analyze the effects of treatment on a set of proteins identified to correlate with bona-fide contraction-induced skeletal muscle injury (FIG. 14D).
# [4] = Preclinical experiments, target muscle concentration; format: in vivo; conditions: from preclinical experiments
# Description: as §2
# adults with BMD [5] = assay: North Star Ambulatory Assessment (NSAA) in adults with BMD; format: in vivo, human; conditions: for NSAA outcome: 20 mg group
# Source text: After 4 months of Compound 1 dosing, NSAA increased by an average of 1.17 points compared to pre-therapy baseline. […] The NSAA improvements observed after only 4 months of Compound 1 dosing differ from trajectories observed in the natural history study reported by Bello et al. (2016), one of the most comprehensively characterized BMD cohorts, in which the yearly decline was 1.22 NSAA points.
# NSAA scores were also quantified based on FIGS. 9A-9C. Compound 1 stabilized NSAA scores by rescuing the natural history trend by about 1.6 points, and led to a trend towards an improvement in the scores. […] In comparison, the expected natural history decline in untreated patients is around −1.2 to −1.3 points.
# Therefore, a lower exposure of Compound 1 (e.g., 10 mg) may have a more desired functional benefit.
# [6] = Plasma PK of Compound 1 in adults with BMD (ARCH open label study); format: in vivo, human; parameters: Mean AUC for the Compound 1 Plasma PK levels: unit not given here; conditions: for Mean AUC for the Compound 1 Plasma PK levels: BMD patients
# Description: FIG. 4 depicts plasma levels of Compound 1 and step count of BMD patients after four months of dosing.
# as §3
# (§7) FIGS. 10 to 13 depict promising 12-month results from the ongoing open label, single-center study assessing the safety, tolerability, and impact on muscle damage biomarkers, and pharmacokinetics (PK) of Compound 1 in adults with BMD. The different dosing regimens depicted in FIGS. 10A-10C, FIG. 111B, and FIGS. 12A-12F were carried out in three cohorts. One cohort has been dosed with 20 mg of Compound 1 for 12 months. A second cohort has been dosed with 15 mg of Compound 1 for 6 months. A third cohort has been dosed with 10 mg of Compound 1 for 2 months. […] Therefore, no treatment plans were discontinued due to AEs.
# as §2
# muscle injury proteins = assay: SOMAscan plasma proteomics, muscle injury proteins, BMD participants; format: in vivo, human
# Description: as §1
# In this study, SOMAscan was correlated to CK and TNNI2 to allow for direct conversion to absolute concentrations as well as used to identify large-scale proteomic differences between short- and long-term treatment with Compound 1. […] FIG. 14C illustrates SOMAscan-quantified CK and TNNI2 in blood. […]
# adults with BMD [7] = assay: Safety and tolerability in adults with BMD (ARCH open label study); format: in vivo, human
# Description: as §3, §7
# myoglobin = assay: Muscle damage biomarker myoglobin in adults with BMD; format: in vivo, human
# Description: as §7, §5
# adults with BMD [8] = assay: Self-reported pain score in adults with BMD; format: in vivo, human
# Source text: FIG. 8 depicts a decrease in the self-reported pain score in BMD patients at two and four months following the initial administration of Compound 1.
# BMD individuals usually report more diffuse pain on spine and calves, See Jacques M F et al., Plos ONE (2019). Self-reported pain evaluation was collected and quantified in FIG. 13. […] Therefore, Compound 1 has shown to reduce pain associated with BMD.
# [9] = system: fast skeletal muscle troponin I (TNNI2); assay: Muscle damage biomarker fast skeletal muscle troponin I in adults with BMD (ELISA / SOMAscan); format: in vivo, human
# Description: as §3, §4, §5, §1, §6
# [10] = two and four months after initial administration (FIG. 7)
# [11] = after 4 months, laboratory assay
# [12] = short-term treatment (1-2 months), relative to pre-dose baseline
structure (smiles),measurement,setting,value
O=c1ccc(-c2cnc(OCC(F)(F)F)nc2)nn1Cc1cncc(F)c1 [Compound 1],Deterioration in 10 m velocity,adults with BMD [1]; 12-month results (FIG. 12A),no statistically significant deterioration
same,Deterioration in 100 meter velocity,adults with BMD [1]; 12-month results (FIG. 12B),no statistically significant deterioration
same,Deterioration in 4-stair climb time velocity,adults with BMD [1]; 12-month results (FIG. 12C),no statistically significant deterioration
same,Decrease in average 4-stair climb time velocity,"adults with BMD [1]; at 12 months, p 0.016 (FIG. 12C)",13%
same,Decrease in average maximum knee extension strength,"adults with BMD [1]; at 12 months, p <0.05 (FIG. 12E)",25%
same,Decrease in average 10 m velocity,"adults with BMD [1]; at 12 months, p NS (FIG. 12A)",7%
same,Change in average 100 meter velocity,"adults with BMD [1]; at 12 months, p NS (FIG. 12B)",0%
same,Decrease in average maximum grip strength,"adults with BMD [1]; at 12 months, p NS (FIG. 12D)",8%
same,Change in maximum elbow flexion strength,"adults with BMD [1]; at 12 months, p NS (FIG. 12F)",no change
same,Muscle strength effect,adults with BMD [1]; some participants from the 20 mg group (FIGS. 12C-12F),muscle strength weakness
same,Grip strength versus baseline,adults with BMD [1]; [10],increases
same,Stair climb velocity versus baseline,adults with BMD [1]; [10],increases
same,Walk/run velocity versus baseline,adults with BMD [1]; [10],increases
same,Proinflammatory cytokines and chemokines (SOMAscan),[2]; after 6-12 months,very significantly reduced
same,Anti-inflammatory interleukins (SOMAscan),[2]; after long-term treatment (6-12 months),increased
same,Kp,"[3]; human, muscle, read-out: Enrichment in muscle compared to plasma",~60
same,Plasma concentration equating to target muscle concentration,"[3]; in BMD, using Phase 1 MAD muscle biopsy data",0.015 to 0.07 µg/mL
same,Change of creatine kinase (CK) level,creatine kinase (CK); 10 mg dose,near maximal decreases
same,Average reduction of CK,creatine kinase (CK); [11],29%
same,Change of creatine kinase (CK) level,creatine kinase (CK); different dosing regimens up to 12 months (FIG. 10A),sustained decrease
same,SOMAscan-quantified circulating CK,creatine kinase (CK); [12],reduced by short-term treatment
same,Target muscle concentration of Compound 1,[4],"1,000-4000 ng/g"
same,NSAA outcome,adults with BMD [5]; participants under high exposures (negative changes in NSAA),less optimal outcomes
same,NSAA outcome,adults with BMD [5]; participants with the lower exposures,stable or the best improving NSAA scores
same,Participants with the same or better NSAA scores,adults with BMD [5]; 12-month group (FIG. 11C),about 75%
same,NSAA rescue of the natural history trend,adults with BMD [5]; 12-month results (FIG. 11A),about 1.6 points
same,Average NSAA increase compared to pre-therapy baseline,adults with BMD [5]; after 4 months of dosing,1.17 points
same,Participants with functional improvement or no decline on NSAA relative to baseline,adults with BMD [5]; after 4 months of dosing,nine of the twelve
same,Mean AUC for the Compound 1 Plasma PK levels,[6]; 10 mg dose,"1,454"
same,Mean AUC for the Compound 1 Plasma PK levels,[6]; 15 mg dose,"2,299"
same,Mean AUC for the Compound 1 Plasma PK levels,[6]; 20 mg dose,"2,293"
same,Plasma concentration relative to target exposures predicted from preclinical models,"[6]; 20 mg/day, patients with high exposures",more than 4 fold
same,Muscle injury proteins (SOMAscan),muscle injury proteins; long-term treatments (6-12 months),stable levels or further decreases
same,Muscle injury proteins (SOMAscan),"muscle injury proteins; short-term treatment (1-2 months, 10 mg)",decreased from pre-dose baseline
same,Most common adverse events,adults with BMD [7]; 4-month interim,"dizziness, drowsiness, and headache"
same,Tolerability,"adults with BMD [7]; 4-month interim, 10 mg for 2 months then 15 mg daily oral at night, twelve adults with BMD",well-tolerated in all participants with no discontinuations or dose reductions
same,Tolerability,"adults with BMD [7]; 12-month results, 10, 15 and 20 mg doses",well tolerated at all doses without any severe adverse events
same,Change of myoglobin level,myoglobin; 10 mg dose,near maximal decreases
same,Change of myoglobin level,myoglobin; different dosing regimens up to 12 months (FIG. 10C),sustained decrease
same,Self-reported pain scores,adults with BMD [8]; after 12 months of treatment (FIG. 13),positive trend
same,Self-reported pain score,adults with BMD [8]; two and four months after initial administration (FIG. 8),decrease
same,Change of TNNI2 level,[9]; 10 mg dose,near maximal decreases
same,Average reduction of fast skeletal muscle troponin I,[9]; [11],73%
same,Patients reaching fast skeletal muscle troponin I levels of unaffected adults,"[9]; after 4 months, twelve participants",four patients achieving levels observed in unaffected adults
same,Change of TNNI2 level,[9]; different dosing regimens up to 12 months (FIG. 10B),sustained decrease
same,SOMAscan-quantified circulating TNNI2,[9]; longer-term treatment timepoints,reduced to nearly healthy levels
same,SOMAscan-quantified circulating TNNI2,[9]; [12],reduced by short-term treatment
